Measurements published in paper PMC4109680, “Identification and Preclinical Pharmacology of the γ-Secretase Modulator BMS-869780” (International Journal of Alzheimer's Disease, 2014).
Entries after “also recorded” stand apart in the source; their conditions may differ. Read-outs that look alike come from different tables or passages of the source.

How the values were obtained:
brain Aβ1-42 and Aβ1-40 = test: Rat 4-day repeat dose, residual brain Aβ by ELISA and immunodepletion; assay type: in vivo
Experimental: Figure 7 BMS-869780 dose response and evaluation of residual Aβ levels in rat brain. (a) Groups of rats received intraperitoneal (IP) injections of vehicle or BMS-869780 at doses of 100, 30, 10, 3, 1, and 0.3 mg/kg. Additional rats were dosed with GSI BMS-698861 at 30 mg/kg as a positive control for Aβ-lowering. Group sizes were seven rats for each dose of BMS-869780 and 14 rats for vehicle and GSI dose groups. Brain and plasma were harvested 5 hours after dosing. Brain Aβ1-42 (green), brain Aβ1-40 (blue), brain Aβ1-x (black), and plasma Aβ1-40 (red) were determined. Values are expressed as % relative to vehicle group mean. Whiskers represent standard error. ⊗Aβ1-x was not determined in the groups dosed at 3, 1, and 0.3 mg/kg. (b) Brain Aβ1-40 was plotted against brain Aβ1-42 for each rat dosed with BMS-869780 (black ▼) and for each rat dosed with vehicle (grey ●). Values are expressed as % relative to vehicle group mean. Whiskers represent standard error. […] The respective 95% confidence intervals were 618–1053 nM, 704–1264 nM, and 44–158 nM. (d) Rats were dosed once daily with BMS-869780 for 4 days at 10 and 100 mg/kg or vehicle, plasma, and brain samples were taken 5 hours after the last dose, and immunodepletion of brain extracts was carried out prior to Aβ1-42 ELISA assays. […] After immunodepletion, Aβ1-42 was assayed by ELISA. (e) Same as described in (d), except that Aβ1-40 ELISA was carried out following the immunodepletion.
For immunodepletion of rat brain Aβ, solid phase extracts were pooled within treatment groups. The pools were divided into equal aliquots and incubated with or without monoclonals 565, TSD, 4G8, or 6E10 (10 μg) at 4°C overnight. Protein G beads (50 μL; EZview, Sigma) were added, and incubation was continued with agitation for 1 hour. The beads were removed by centrifugation, and Aβ1-40 and Aβ1-42 in the unbound fraction were quantified by ELISA, as described above.
(§1) All experimental procedures with animals followed National Institutes of Health guidelines and were authorized by and in compliance with policies of the Bristol-Myers Squibb Animal Use and Care Committee. Mice and rats were housed with a 6:00 AM to 6:00 PM light/dark cycle and allowed free access to food and water. For 3xTg mice, BMS-869780 was dosed in three-month-old females by oral gavage at 6 mL/kg in vehicle consisting of 84% polyethylene glycol average molecular weight of 400 (PEG-400), 15% EtOH, and 1% Tween-80 (w/w/w). The compound was dissolved in EtOH and then diluted with PEG-400 and Tween, after which the vial was sealed, vortexed, and sonicated at 56°C for 1 hour. Animals were euthanized by asphyxiation in CO2. Blood was collected by cardiac puncture and placed into ethylene-diaminetetraacetic acid microtainer tubes for the preparation of plasma. The cerebellum was collected for the determination of compound concentration, and the remaining brain was separated into left and right halves before freezing in liquid nitrogen. For the rat time course study, 8- to 12-week-old female Sprague-Dawley rats were obtained from Charles River Laboratories (Wilmington, MA), BMS-869780 was dosed orally at 4 mL/kg, and brain and plasma samples were collected as described for the 3xTg mice. For the four day repeat dose rat study, BMS-869780 was given by oral gavage in vehicle consisting of PEG-400, PEG-200, D-α-tocopheryl polyethylene glycol succinate, Solutol HS 15, in the ratio 80 : 10 : 5 : 5 (w/w/w/w). Methods for the pharmacokinetics studies in rat, dog, and monkey are described below.

[1] = Plasma exposure in rat 4-day oral dosing experiment; assay type: in vivo; settings: for AUC(0-t): read-out: AUC (0–24 h); for concentration at 4 day: oral, read-out: Terminal concentration day 4
Experimental: as §1
(§2) As a preliminary evaluation of safety in vivo, male and female rats were given 10, 30, and 100 mg/kg BMS-869780 orally once daily for 4 days. Endpoints included brain Aβ1-42, as described above (Figures 7(d) and 7(e)), plasma PK on day 1 and day 3 (Table 4), and histopathology for duodenum, liver, and kidney.

[2] = system: duodenum, liver, and kidney; test: Histopathology in rat 4-day oral dosing experiment; assay type: in vivo
Experimental: Determination of IC50 values for inhibition of secreted alkaline phosphatase (SEAP) was carried out using an H4 cell line stably expressing SEAP. Cells were treated overnight with compounds in 384-well format, and SEAP accumulation in the culture media was quantified using a chemiluminescence substrate. The pregnane-X-receptor transactivation assay (PXR-TA) was based on the methods of Goodwin et al. as described previously. In the 4-day rat study with BMS-869780, tissues were fixed in 10% neutral buffered formalin, embedded in paraffin, sectioned, stained with hematoxylin and eosin, and examined by light microscopy.
as §2

[3] = Plasma protein bound fraction, rat; assay type: in vitro ADME
[4] = averaged across depleted samples in both dose groups
[5] = four daily doses, 10 and 100 mg/kg, 5 hours after last dose
[6] = female, rat, plasma, po, 10 mg/kg, Female, Day 1
[7] = female, rat, plasma, po, 10 mg/kg, Female, Day 3
[8] = female, rat, plasma, po, 30 mg/kg, Female, Day 1
[9] = female, rat, plasma, po, 30 mg/kg, Female, Day 3
[10] = female, rat, plasma, po, 100 mg/kg, Female, Day 1
[11] = female, rat, plasma, po, 100 mg/kg, Female, Day 3
[12] = male, rat, plasma, po, 10 mg/kg, Male, Day 1
[13] = male, rat, plasma, po, 10 mg/kg, Male, Day 3
[14] = male, rat, plasma, po, 30 mg/kg, Male, Day 1
[15] = male, rat, plasma, po, 30 mg/kg, Male, Day 3
[16] = male, rat, plasma, po, 100 mg/kg, Male, Day 1
[17] = male, rat, plasma, po, 100 mg/kg, Male, Day 3

Which “residual signal for Aβ1-40 after immunodepletion” value (brain Aβ1-42 and Aβ1-40; [4]) does the source give for `COc1cc(Nc2nc3n(n2)CCCC[C@H]3c2ccc(F)cc2)ccc1-n1cnc(Cl)c1` [BMS-869780] here?
Its value is 4%.

And the “residual signal for Aβ1-42 after immunodepletion” value (brain Aβ1-42 and Aβ1-40; [4])?
The value was 16%.

What about the “residual pool of Aβ1-40” value (brain Aβ1-42 and Aβ1-40; four daily doses) of the same compound?
Its value is roughly 7%.

What about the “residual pool of Aβ1-42” value (brain Aβ1-42 and Aβ1-40; four daily doses) of the same compound?
Its value is “ca. 15%”.

And the “residual ELISA signal for Aβ1-40” value (brain Aβ1-42 and Aβ1-40; [5])?
The value was 19%.

What about the “residual ELISA signal for Aβ1-42” value (brain Aβ1-42 and Aβ1-40; [5]) of the same compound?
The value was 31%.

What about the “Terminal concentration day 4” value ([1]; 100 mg/kg, Female) of the same compound?
Its value is 13.7 (±0.9) μM.

And the “AUC (0–24 h)” value ([1]; 100 mg/kg, Female, Day 3)?
The value was 316.4 (±77.0) μM·h.

What about the “Terminal concentration day 4” value ([1]; 100 mg/kg, Male) of the same compound?
Its value is 9.2 (±3.2) μM.

And the “change of exposure on repeat dosing” value ([1]; day 1 versus day 3)?
The value was “no loss of exposure between day 1 and day 3”.

And the Cmax [1, 6]?
Its Cmax is 2.9 µM.

And the Tmax [1, 6]?
Its Tmax is 7 h.

And the AUC(0-t) [1, 6]?
The AUC(0-t) was 41 µM·h.

And the Cmax [1, 7]?
The Cmax was 2.6 µM.

And the Tmax [1, 7]?
Its Tmax is 5 h.

And the AUC(0-t) [1, 7]?
The AUC(0-t) was 25 µM·h.

What about the Cmax [1, 8] of the same compound?
Its Cmax is 8.2 µM.

What about the Tmax [1, 8] of the same compound?
The Tmax was 5 h.

What about the AUC(0-t) [1, 8] of the same compound?
The AUC(0-t) was 152 µM·h.

And the Cmax [1, 9]?
Its Cmax is 14.4 µM.

And the Tmax [1, 9]?
Its Tmax is 3 h.

And the AUC(0-t) [1, 9]?
Its AUC(0-t) is 255 µM·h.

And the Cmax [1, 10]?
Its Cmax is 10.6 µM.

And the Tmax [1, 10]?
The Tmax was 24 h.

And the AUC(0-t) [1, 10]?
Its AUC(0-t) is 206 µM·h.

What about the Cmax [1, 11] of the same compound?
The Cmax was 15.5 µM.

And the Tmax [1, 11]?
The Tmax was 4 h.

And the AUC(0-t) [1, 11]?
Its AUC(0-t) is 316 µM·h.

And the exposures achieved ([1]; highest dose of 100 mg/kg)?
Its exposures achieved is greater than 200 µM·h.

And the Cmax [1, 12]?
Its Cmax is 2 µM.

What about the Tmax [1, 12] of the same compound?
Its Tmax is 5 h.

And the AUC(0-t) [1, 12]?
The AUC(0-t) was 20.2 µM·h.

And the Cmax [1, 13]?
The Cmax was 1.9 µM.

And the Tmax [1, 13]?
The Tmax was 5 h.

And the AUC(0-t) [1, 13]?
The AUC(0-t) was 17.5 µM·h.

What about the Cmax [1, 14] of the same compound?
The Cmax was 6.1 µM.

And the Tmax [1, 14]?
Its Tmax is 8 h.

What about the AUC(0-t) [1, 14] of the same compound?
Its AUC(0-t) is 95.2 µM·h.

And the Cmax [1, 15]?
The Cmax was 10.4 µM.

And the Tmax [1, 15]?
Its Tmax is 3 h.

And the AUC(0-t) [1, 15]?
The AUC(0-t) was 129 µM·h.

And the Cmax [1, 16]?
The Cmax was 7.7 µM.

And the Tmax [1, 16]?
The Tmax was 19 h.

And the AUC(0-t) [1, 16]?
Its AUC(0-t) is 168 µM·h.

And the Cmax [1, 17]?
Its Cmax is 13.2 µM.

And the Tmax [1, 17]?
The Tmax was 7 h.

What about the AUC(0-t) [1, 17] of the same compound?
The AUC(0-t) was 217 µM·h.

What about the concentration at 4 day ([1]; rat, plasma, 10 mg/kg, Female) of the same compound?
The concentration at 4 day was 3 µM.

And the concentration at 4 day ([1]; rat, plasma, 10 mg/kg, Male)?
Its concentration at 4 day is 2.4 µM.

What about the concentration at 4 day ([1]; rat, plasma, 30 mg/kg, Female) of the same compound?
The concentration at 4 day was 12 µM.

And the concentration at 4 day ([1]; rat, plasma, 30 mg/kg, Male)?
The concentration at 4 day was 8.9 µM.

And the AUC ([1]; rat, plasma, po, four daily doses of 10 mg/kg)?
Its AUC is 17.5 µM·h.

What about the “duodenum and kidney histology” value ([2]; 10, 30 and 100 mg/kg orally once daily for 4 days) of the same compound?
The value was “unchanged at all dose levels”.

And the liver histology ([2]; at all doses (10, 30, 100 mg/kg once daily for 4 days))?
Its liver histology is “macro- and microvesicular vacuolar degeneration”.

And the “separation of hepatotoxicity from Aβ1-42 lowering exposure benchmarks” value ([2]; lipidosis after four daily doses of 10 mg/kg)?
The value was “no separation of hepatotoxicity”.

And the “Notch-related effect in duodenum” value ([2]; up to 100 mg/kg once daily for 4 days)?
Its value is “no Notch-related effect on differentiation in the duodenum; also recorded: did not cause any histological change in duodenum”.

What about the protein bound fraction [3] of the same compound?
Its protein bound fraction is 99.5%.
